Measured values taken from patent US4753928A, “Process for obtaining sexual products from mammals suitable for natural or artificial fertilization” (INNOFINANCE Altalanos Innovacios Pengintezet, priority 1985, dated 1988).
Where a SMILES comes first, the peptide text is derived from it. [ ]: non-standard residue; d: D form. pGlu = O=C1CC[C@@H](C(=O)O)N1

Experiments:
infant female rats = experiment: Super-ovulation induced in infant female rats; assay type: in vivo; details: out of 60 21-day old rats; i.p., 1-8 days, 1 or 2 μg daily or twice daily, finished with 5 or 10 μg
Protocol: 60 pieces of 21-day old infant rats weighing […] were treated with D-Phe^6 -Gln^8 -GnRH in normal saline solution intraperitoneally. The animals, depending on the treatment they were having, were placed into different groups. In the series of treatments lasting 1-8 days, 1 and 2 μg doses, respectively, were administered daily and twice daily. Treatments were finished with 5 and 10 μg doses, respectively.
After treatment all animals were killed with vapour of ether and their ovaries were removed after the animals died and 24 hours after the last treatment. Evaluation was done visually and from hystological samples. We found several developing follicles in the ovaries of the control animals, but not one of them was of Graf-follicle size, and neither corpur luteum, nor corpus haemorrhagicum could be detected. On the other hand, in all treated groups hormonal effect could be seen which made itself evident by the growing of follicles, by their turning into Graf-follicles, by their ovulation and the forming of regular corpus luteum. Enlarging of the oviduct and the uterus was also evident. […] In the group that received for 4 days 2 μg of GnRH analogue twice daily and on the 4th day the 2 μg treatment was followed by a 10 μg dose, in the ovary of all animals immediately before ovulation softened Graf follicles could be observed in large numbers. […]

infant female pigs = experiment: Inducing super-ovulation in infant pigs; assay type: in vivo; details: 10 μg twice daily 6 days i.m., 100 μg on 7th day, after 41 hours; 100-day old pigs
Protocol: 20 100-day old infant female pigs were treated for 6 days, twice daily, with 10 μg doses each consisting of D-Phe^6 -Gln^8 -GnRH analogue administered intramuscularly. In the test half side of the ovaries in the control animals was removed and, by using the test method detailed in Example 3, the number of the Graf-follicles and of corpora lutea formed was compared. Occurrence of ovulation was detected by laparoscopy. […] Treatment of these animals produced similar results as described in Examples 1 to 3.

bison bull = experiment: Inducing spermiogenesis of bison bull in seasonal oligospermia; assay type: in vivo; details: 55th day
Excerpt: From bison bull belonging to Zoo and weighing 700 kg, under narcosis and by electrical means a sperm sample was obtained and it was established that it was in a seasonal oligospermial state. Symptoms of this were the following: under microscope magnifying 1500 times and used in sperm evaluation the number of sperm found was 5-20 and defective sperms reached 75-80%. The density of the ejaculate was 0.5. Sperms of this quality are unsuitable for fertilization. Thereafter, twice weekly the animal was treated intramuscularly with 200-200 μg dose each of D-phe^6, Gln^8 -GnRH analogue, using the compressed air injection method. On the 55th day following commencement of treatment, under narcosis and with a time lapse of one hour the animal was ejaculated twice. The two ejaculates were combined; their density was 4, their motility 55%. The thus-obtained sperms were deep frozen, then the decrease of motility as a result of deep freezing was checked: this was only 5%.

[1] = system: primordial follicles of infant domestic female cat; experiment: Stimulating primordial follicles in infant domestic female cat; assay type: in vivo, Felis cattus domesticus; details: 0.1 μg i.m. three times daily for three days
Protocol: 5 kittens of 0.3 kg weight and being 45 days old were treated with D-Phe^6, Gln^8 -GnRH analogue in such a way that under narcosis the left-side ovary was removed. Thereafter the medium was treated for three days, three times daily, with a 4-hour time interval between treatments. Treatment was carried out nine times in all and every instance a 0.1 μg dose of the analogue was used. The active ingredient was suspended in normal saline solution and propyleneglycol and it was administered intramuscularly. After treatment remaining ovaries were removed, evaluated visually, then after fixing hystological examination was performed. Visually both ovaries were butter-yellow, looked homogeneous, but the treated ovary was slightly enlarged.

CC(C)C[C@H](NC(=O)[C@@H](Cc1ccccc1)NC(=O)[C@H](Cc1ccc(O)cc1)NC(=O)[C@H](CO)NC(=O)[C@H](Cc1c[nH]c2ccccc12)NC(=O)[C@H](Cc1c[nH]cn1)NC(=O)[C@@H]1CCC(=O)N1)C(=O)N[C@@H](CCC(N)=O)C(=O)N1CCC[C@H]1C(=O)NCC(N)=O [D-Phe^6, Gln^8 -GnRH analogue, D-Phe^6, Gln^8 -GnRH] ([pGlu]HWSY[dF]LQPG-NH2)
animals that did not react to the treatment (infant female rats): 4
ovulations (infant female pigs): 15-36
decrease of motility as a result of deep freezing (bison bull): 5%
density of ejaculate (bison bull; 200 μg i.m. twice weekly, two ejaculates combined): 4
sperm motility (bison bull; two ejaculates combined): 55%
follicles which started to grow in treated ovary [1]: many hundreds of
